The values that follow come from patent US6541490B1, “Bipyridine manganese complexes” (Eukarion, Inc., priority 1998, dated 2003).

Holding throughout (type): biochemical
Experiment [1] can be described thus: Superoxide dismutase (SOD) assay: xanthene oxidase/hypoxanthene, XTT reduction. As to conditions: SOD activity from IC50 of XTT reduction (one International Unit), normalised; 0.05M Tris/HCl pH 7.4, 25° C. On the procedure:
This method is adapted from what has become the standard method for the measurement of SOD activity (McCord J. M., Fridovich, I., J. Biol. Chem. 244, 6049-6055, 1969). Briefly, a steady-state production of superoxide anion was maintained by the action of xanthene oxidase (XO) on hypoxanthene (HX) at physiological pH. Presence of the anion was measured by the reduction of XTT (3′-{1-(phenylamino)-carbonyl]-3,4-tetrazolium]-bis(4-methoxy-6-nitro)benzsulphonic acid to a water-soluble product with an absorbance maximum at ˜470 nm. Hypoxanthene concentrations were titrated so as to give a steady-state rate of XTT reduction of 0.025 Optical Density Units (OD) per minute at 25° C.
(§1) The assays for compound antioxidant activity were carried out in 96-well microtitre plates using a DIAS modular assay robot instrument (Dynatech Ltd.) Compounds were solublised in DMF at 10 mM. DMF concentrations in the assay never exceeded 1%, were tolerated and were controlled for in assay plates.
Xanthene oxidase (Sigma X1875) 0.01 U/ml and XTT (Sigma X4251), 0.5 mM and hypoxanthene (Sigma H9377), typically at […], were incubated in the presence of various doses of compounds at 25° C. in 0.05M Tris/HCI pH 7.4. Rates of XTT reduction were measured over 5 minutes at 490 nm. Dose-response curves were constructed for inhibition by the compound of control rates of XTT reduction. […]
A general note: Formazan colour is commonly taken as a measure of viable cells.

The nature of experiment [2]: Peroxidase (POD) assay: hydrogen peroxide removal with hydrogen donor ABTS. As to conditions: ABTS 3 mM, 0.05M Tris HCl pH 7.4, 25° C., 2 minutes, interpolated against horseradish peroxidase standard curve. On the procedure: This method measures the ability of the compounds to remove hydrogen peroxide in the presence of the hydrogen donor 2,2′-azino-di-[3-ethyl-benzothiazoline-(6)-sulphonic acid (ABTS) (Galati, H., J. Clin. Chem. Clin. Biochem. (1979) 17, 1-7).
as §1
ABTS (Sigma A-1888) 3 mM was incubated with various concentrations of compound in 0.05M Tris HCI pH 7.4 at 25° C. A range of standard concentrations of horseradish peroxidase (Sigma P-6140) were included on each microtitre plate. Hydrogen peroxide (Sigma H1009) 100 mM was added and the plate incubated at 25° C. for 2 minutes. Absorbance at 405 nm was measured and the rates of ABTS […] calculated. A standard curve was constructed using data from wells containing known concentrations of peroxidase. Data for wells containing compound were interpolated against this curve using the software tools Excel (Microsoft Corp.) and Xlfit (ID Business Solutions). Estimations of peroxidase activity were given as International Units of peroxidase activity/mmol compound.

A short description of experiment [3]: Catalase (CAT) assay: removal of hydrogen peroxide, HRP/ABTS read-out. As to conditions: amount of hydrogen peroxide removed per minute, per mmol of compound; 0.05M Tris HCl pH 7.4, 25° C., 60 mins.
Text: This method measures catalase activity as the ability to remove hydrogen peroxide from solution in the absence of hydrogen donors over one hour. After this time any remaining peroxide was removed by introduction to the mixture of high concentrations of horseradish peroxidase and the hydrogen donor 2,2′-azino-di-[3-ethyl-benzothiazoline-(6)-sulphonic acid (ABTS). This rapid reaction produces peroxide-concentration-dependant product with a maximal absorbance at 405 nm.
as §1
Hydrogen peroxide (Sigma H1009) 100 mM was incubated with various concentrations of compound in 0.05M Tris HCI pH 7.4 at 25° C. for 60 mins. […] Plates were then read for absorbance at 405 nm. A standard curve for absorbance against known hydrogen peroxide concentration was constructed. Absorbance data for wells containing compound were interpolated against this curve using the software tools Excel (Microsoft Corp.) and Xlfit (ID Business Solutions). […]
The catalase assay procedure described above provides certain advantages over previously described assays. […] The oxidation of ABTS results in a colour change which can be measured. […]

`CCCCCCc1cccc2c1[O][Mn]([O]C(C)=O)[O]c1c(CCCCCC)cccc1-c1cccc(n1)-c1cccc-2n1` [Example 18, 6,6′-bis(3-Hexyl-2-hydroxyphenyl)-2,2′-bipyridine-manganese(III)acetate] yielded an SOD in experiment [1] of 41.43 U/mmol compound. Moreover, the POD in experiment [2] is recorded as 209.92 International Units of peroxidase activity/mmol compound. Moreover, the CAT in experiment [3] worked out at 0.0083.
